Legend:
[1] = biological target: T1, hERG potassium channel (Homo sapiens, UniProt Q12809); experiment: hERG inhibition, automated patch clamp (QPatch 48X) in HEK-293 cells stably expressing hERG; assay type: cell-based; conditions: HEK-293 cells stably expressing hERG potassium channel, read-out: hERG inhibition rate; for inhibition at 1 µM: pH 7.4, 1 µM; for inhibition at 10 µM: pH 7.4, 10 µM
T1 construct: host or cells: HEK-293 stably expressing hERG
Description: The culture temperature was 37 °C, and the carbon dioxide concentration was 5%.
Cell passage: The old medium was removed, and the cells were washed once with PBS. […] Once the cells were detached from the bottom of the dish, approximately 5 mL of complete medium pre-warmed at 37 °C was added. The cell suspension was gently triturated with a pipette to dissociate aggregated cells. The cell suspension was transferred to a sterile centrifuge tube and centrifuged at 1000 rpm for 5 min to collect the cells. For expansion or maintenance, the cells were seeded into 10 cm cell culture dishes at a density of 6×10^5 cells per cell culture dish (final volume: 5 mL).
Medium was added to terminate digestion, followed by centrifugation. The cells were then resuspended and counted. The cell density was adjusted to 2-3×10^6 cells/mL. Subsequently, the cells were gently mixed for 15-20 min on a balance shaker at room temperature, and then loaded for detection.
In this study, the automated patch clamp QPatch 48X (Sophion) system was used for electrophysiological detection.
First, the prepared cells were placed on the centrifuge of the Qpatch workstation. The cells were washed with multiple centrifugation/suspension cycles, and the cell culture medium was replaced with extracellular fluid. One MTP-96 plate was retrieved and placed at the MTP source position. The QPlate chip was retrieved and placed at the QPlate source position. The robotic arm scanned the barcodes of MTP-96 plate and QPlate chip, and transferred them to the measurement station. The intracellular fluid and extracellular fluid were aspirated from the reservoir and added to the intracellular fluid pool and the pool of cell and compound of the QPlate chip, respectively. At the measurement station, all measurement sites on the QPlate experienced initial quality control. The quality control process involved aspirating the cell suspension from the cell container of the centrifuge, positioning the cells onto the chip wells via a pressure controller, and establishing high-resistance seal to form a whole-cell recording mode. Once a stable control current baseline was obtained, the test substances can be sequentially aspirated from the test substance MTP-96 plate in order of concentration and applied to the cells.
The voltage stimulation protocol for whole-cell patch-clamp recording of hERG current was as follows: after the whole-cell seal was formed, the cell membrane voltage was clamped at -80 mV. The clamped voltage was depolarized from -80 mV to -50 mV and maintained for 0.5 s (as leak current detection), then stepped to 30 mV and maintained for 2.5 s, and then rapidly returned to -50 mV and maintained for 4 s, whereby tail current of the hERG channel can be elicited. Data was collected repeatedly every 10 s to observe the effect of the drug on hERG tail current. Experimental data was collected by the QPatch screening workstation and stored in the database server.
For each drug concentration, a two-dose regimen was set for a duration of at least 5 min. For each cell, the current detected in the compound-free extracellular fluid served as self-controls, and two cells were detected in independent replicates. All electrophysiological experiments were conducted at room temperature.
The second of the two dosages was used for data analysis. For each drug concentration, the average of the last three data points prior to the next drug concentration was taken to represent the current value for the drug concentration. The current value representing each drug concentration was normalized against the reference current value used as a blank control, and then the inhibition rate corresponding to each drug concentration was calculated.

[2] = Mouse pharmacokinetics after intravenous administration (plasma and brain, LC-MS); assay type: in vivo; conditions: C57 mice, intravenous 5 mg/kg; for concentration at 120 min: brain after cardiac perfusion, read-out: brain drug concentration at 120 min; for half-life / AUC: plasma; for AUC: read-out: area under the curve (AUC) from 1 to 120 min
Description: C57 mice were administered intravenously, at a dosage concentration of 5 mg/kg in each group. Retro-orbital blood collection was performed on the mice at 1 min, 30 min, 1 h, and 2 h post-dosing. The collected blood was centrifuged at 3000 rpm for 10 min at 4 °C to obtain plasma. Acetonitrile was added at a 1:3 volume ratio of plasma: acetonitrile to precipitate proteins. After centrifugation, the supernatant was collected and filtered. The concentration of the compound was detected using LC-MS (Agilent 1260-G6125, SIM mode). In addition, 2 h after drug injection, the mice were subjected to cardiac perfusion and then their brains were harvested. Following tissue homogenization and centrifugation, the supernatant was collected. Acetonitrile was added at a 1:3 volume ratio of supernatant: acetonitrile to precipitate proteins. After centrifugation, the supernatant was collected and filtered. The concentration of the compound was detected using LC-MS (Agilent 1260-G6125, SIM mode).
Experimental groups: a vehicle control group, and a dosing group.

[3] = biological target: NLRP3 (Mus musculus, UniProt Q8R4B8); experiment: Inhibition curves (IC50) of canonical NLRP3 activation in J774A.1 cells, IL-1β release; assay type: cell-based; parameters: The mouse macrophage cell line J774A.1 was used, and LPS was used as the first signal; host or cells: J774A.1 mouse monocyte-macrophage cell line; conditions: J774A.1 cell LPS+ATP activation model
Description: J774A.1 cells were plated in a 48-well plate at a density of 1.0×10^6 cells/mL, with 300 µL per well. Subsequently, NLRP3 was activated by LPS+ATP or LPS+Nig. […] ATP was purchased from Sigma, Cat. No.: L2654. Nig was purchased from Shanghai Yuanye Bio-Technology Co., Ltd., Cat. No.: S45490.
Experimental groups: a negative control group, an LPS-alone incubation control group, an LPS+ATP/Nig positive control group, and an example compound experimental group with different concentrations.
After the plated J774A.1 cells adhering to the plate, the culture medium was replaced. For all the groups except the negative control group, the culture medium was completely replaced with cell culture medium containing 1 µg/mL LPS. The negative control group received cell culture medium. Then, all the groups were incubated overnight. 18 h later, the culture medium was replaced again. The culture medium of the example compound experimental group was completely replaced with culture medium containing different concentrations of compounds; while the negative control group, the LPS-alone incubation control group, and the LPS+ATP/Nig positive control group received cell culture medium. 1 h later, the culture mediums of the LPS+ATP/Nig positive control group and the example compound experimental group with different concentrations were completely replaced with cell culture medium containing 5 mM ATP or 10 µM Nig. 1 h later, the cell supernatants were collected for IL-1β detection.
Therefore, the relative change in the amount of IL-1β release may directly reflect NLRP3 inhibitory effect. The inhibitory effect of the compounds varies with different concentrations, and based on this, an inhibition curve can be constructed, and the inhibitory effects of the compounds were assessed by IC50.

T1 sequence (Q12809 whole entry): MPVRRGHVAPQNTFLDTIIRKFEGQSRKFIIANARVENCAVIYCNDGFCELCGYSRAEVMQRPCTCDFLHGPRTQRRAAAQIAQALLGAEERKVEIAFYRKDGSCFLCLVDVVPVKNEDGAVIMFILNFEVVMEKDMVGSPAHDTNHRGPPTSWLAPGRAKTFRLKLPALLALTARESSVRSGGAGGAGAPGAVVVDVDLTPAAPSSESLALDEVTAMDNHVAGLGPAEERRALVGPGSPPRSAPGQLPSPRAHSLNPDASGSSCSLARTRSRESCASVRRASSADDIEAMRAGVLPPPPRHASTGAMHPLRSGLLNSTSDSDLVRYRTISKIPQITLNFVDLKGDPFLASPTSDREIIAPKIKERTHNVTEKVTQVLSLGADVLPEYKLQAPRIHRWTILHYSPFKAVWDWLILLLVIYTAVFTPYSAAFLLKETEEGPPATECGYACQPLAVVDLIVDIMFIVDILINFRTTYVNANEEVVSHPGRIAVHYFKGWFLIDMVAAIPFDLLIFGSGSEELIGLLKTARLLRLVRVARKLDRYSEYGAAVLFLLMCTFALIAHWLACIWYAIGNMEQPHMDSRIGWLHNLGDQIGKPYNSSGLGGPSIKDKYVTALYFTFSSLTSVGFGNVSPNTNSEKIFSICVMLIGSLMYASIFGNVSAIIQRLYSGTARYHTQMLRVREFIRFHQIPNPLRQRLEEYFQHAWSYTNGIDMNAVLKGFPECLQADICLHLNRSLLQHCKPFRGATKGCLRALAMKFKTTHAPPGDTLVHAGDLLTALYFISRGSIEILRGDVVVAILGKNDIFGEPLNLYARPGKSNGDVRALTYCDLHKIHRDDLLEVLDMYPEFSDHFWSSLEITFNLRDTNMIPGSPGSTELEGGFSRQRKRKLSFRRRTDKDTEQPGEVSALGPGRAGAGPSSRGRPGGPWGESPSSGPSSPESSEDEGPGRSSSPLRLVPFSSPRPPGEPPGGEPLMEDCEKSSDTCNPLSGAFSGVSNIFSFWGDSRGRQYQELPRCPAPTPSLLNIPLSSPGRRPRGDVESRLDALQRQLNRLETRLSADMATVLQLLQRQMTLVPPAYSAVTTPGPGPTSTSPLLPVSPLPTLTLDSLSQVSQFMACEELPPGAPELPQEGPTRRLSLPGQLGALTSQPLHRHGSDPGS
Chain of NLRP3 (Q8R4B8 whole entry): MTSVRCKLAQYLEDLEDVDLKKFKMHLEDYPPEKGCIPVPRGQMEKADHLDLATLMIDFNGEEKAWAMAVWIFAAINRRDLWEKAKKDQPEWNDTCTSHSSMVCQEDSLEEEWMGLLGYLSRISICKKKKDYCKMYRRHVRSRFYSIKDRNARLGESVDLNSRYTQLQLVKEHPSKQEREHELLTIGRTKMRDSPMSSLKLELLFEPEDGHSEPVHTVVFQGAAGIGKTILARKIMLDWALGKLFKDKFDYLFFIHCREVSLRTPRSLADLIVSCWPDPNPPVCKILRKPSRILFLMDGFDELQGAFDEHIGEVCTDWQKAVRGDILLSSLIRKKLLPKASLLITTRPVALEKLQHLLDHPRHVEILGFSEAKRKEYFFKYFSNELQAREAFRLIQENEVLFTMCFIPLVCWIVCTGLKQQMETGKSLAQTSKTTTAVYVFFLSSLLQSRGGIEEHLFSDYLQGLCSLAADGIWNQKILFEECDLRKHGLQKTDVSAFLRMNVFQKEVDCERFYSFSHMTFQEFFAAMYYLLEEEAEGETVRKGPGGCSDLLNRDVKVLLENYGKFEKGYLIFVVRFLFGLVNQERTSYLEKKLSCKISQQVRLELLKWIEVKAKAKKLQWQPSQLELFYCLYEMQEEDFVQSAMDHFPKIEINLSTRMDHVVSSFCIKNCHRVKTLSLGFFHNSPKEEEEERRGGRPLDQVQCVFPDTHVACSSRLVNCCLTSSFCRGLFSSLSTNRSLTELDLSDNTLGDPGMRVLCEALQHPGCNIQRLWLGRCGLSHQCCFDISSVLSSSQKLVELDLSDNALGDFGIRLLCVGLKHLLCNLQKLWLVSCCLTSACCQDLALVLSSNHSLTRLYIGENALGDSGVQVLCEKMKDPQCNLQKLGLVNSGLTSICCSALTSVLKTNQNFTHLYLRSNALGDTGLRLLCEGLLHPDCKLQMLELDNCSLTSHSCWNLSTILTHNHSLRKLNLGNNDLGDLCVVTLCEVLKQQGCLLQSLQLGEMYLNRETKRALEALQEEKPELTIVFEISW

| Structure (SMILES) | inhibition at 1 µM [1] [%] | inhibition at 10 µM [1] [%] | concentration at 120 min [2] [ng/mL] | half-life [2] [h] | AUC [2] [ng·h/mL] | IC50 [3] [nM] |
| --- | --- | --- | --- | --- | --- | --- |
| CN(C)Cc1cccc(S(=O)(=O)NC(=O)Nc2c3c(cc4c2CCC4)CCC3)c1N [Example 19, 2-amino-3-((dimethylamino)methyl)-N-((1,2,3,5,6,7-hexahydro-s-indacen-4-yl)carbamoyl)benzenesulfonamide] | 0.3 | 2.96 | 242 | 2.32 | 14700 | 114 |
| COc1ccc(S(=O)(=O)NC(=O)Nc2c3c(cc4c2CCC4)CCC3)cc1CN(C)C [Example 3, 3-((dimethylamino)methyl)-N-((1,2,3,5,6,7-hexahydro-s-indacen-4-yl)carbamoyl)-4-methoxybenzenesulfonamide] | 0.45 | 1.56 | 35500 | 1.05 | 257000 | 203 |
| CN(C)Cc1cc(S(=O)(=O)NC(=O)Nc2c3c(cc4c2CCC4)CCC3)ccc1O [Example 5, 3-((dimethylamino)methyl)-N-((1,2,3,5,6,7-hexahydro-s-indacen-4-yl)carbamoyl)-4-hydroxybenzenesulfonamide] | 0.28 | -0.61 | 3870 | 2.3 | 67400 | 224 |
